Holding throughout (assay): NCI tumour cell line growth inhibition, 48 h
In assay [1] the test system is K562.
The subject of assay [2] is CCRF-CEM.
In assay [3] the test system is HCT-116.
Assay [4] relates to IGROV-1.
In assay [5] the test system is SNB-78.
Assay [6] deals with SK-MEL-2.
The test system of assay [7] is TK-10.
In assay [8] the test system is DMS-273.
In assay [9] the test system is HCC 2998.
The subject of assay [10] is Malme-3M.
Assay [11] has as its system SF-295.
For assay [12], the system named is EKVX.
In assay [13] the test system is KM-20L2.
Assay [14] has as its system KM12.
Assay [15] has as its system UACC-62.
For assay [16], the system named is OVCAR-5.
In assay [17] the test system is SK-MEL-5.
Assay [18] deals with LOX IMVI.
Assay [19] has as its system MDA-MB-435.
Assay [20] relates to Hs-578T.

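96-well plates; 48 h exposure; 5 concentrations. Endpoints by linear interpolation between flanking doses. Not reached: highest tested concentration assigned. At the GI50, growth is halved.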 Activity calls are given as the source filed them. Cut-off read from the data, not from the text of the source: active = GI50 up to about 1.1 µM and inactive = higher.

From ChEMBL document CHEMBL1201862, “PubChem BioAssay data set” (2004) come the findings set out here.

For the molecule `O=c1[nH]ccc(CNC23CC4CC(CC(C4)C2)C3)c1O`, the GI50 was 88.3 µM (inactive) in assay [1]; 41.5 µM (inactive) in [2]; > 100 µM (inactive) in assay [3]; > 100 µM (inactive) in assay [4]; > 100 µM (inactive) in assay [5]; > 100 µM (inactive) in assay [6]. Further, the GI50 in assay [7] is > 100 µM (inactive); in assay [8] it was > 100 µM (inactive); in assay [9], > 100 µM (inactive); in [10] it was > 100 µM (inactive); in [11], 78.2 µM (inactive); in assay [12], 80.4 µM (inactive). Moreover, the GI50 in assay [13], in assay [14], in [15], in assay [16] and in assay [17] was > 100 µM (inactive) in each case.

For the molecule `CCC1CN2CCc3cc(OC)c(OC)cc3C2CC1CC1c2cc(OC)c(OC)cc2CCN1C(=O)C1CCCN1` (centres undefined), the GI50 is 20.5 µM (inactive) in assay [1]; 26.1 µM (inactive) in assay [2]; 19.5 µM (inactive) in assay [3]; 28.4 µM (inactive) in assay [4]; 47.4 µM (inactive) in assay [5]; 27.8 µM (inactive) in assay [6]. The GI50 in assay [7] was 45.4 µM (inactive); in [8], 35.3 µM (inactive); in assay [9], 23.9 µM (inactive); in assay [10] it was 21.4 µM (inactive); in assay [11], 41 µM (inactive); in assay [12], 36.6 µM (inactive). The GI50 in assay [14] was 35.2 µM (inactive); in assay [16] it was 53 µM (inactive); in [17], 17.3 µM (inactive); in [18] it was 24.9 µM (inactive).

As to `Cc1ccc(C(=O)NC2CCCCC2)cc1/N=N/N(C)C`, the GI50 in assay [3], in assay [4], in [5], in assay [6], in assay [7] and in assay [8] was > 100 µM (inactive) throughout. In addition, the GI50 in assay [9], in assay [11], in assay [12], in assay [13], in assay [14] and in assay [15] was > 100 µM (inactive) throughout. Besides, the GI50 in [17] and in assay [18] was > 100 µM (inactive) throughout.

As for `O=C1NC2C(O)CCCCC2C12CCCCC2` (centres undefined), the GI50 in [1], in assay [3], in assay [4], in assay [5], in [6] and in [8] was > 100 µM (inactive) throughout. Besides, the GI50 in assay [10], in [11], in assay [12], in [14], in assay [15] and in [16] was > 100 µM (inactive) throughout. The GI50 in assay [17] and in assay [18] was > 100 µM (inactive) throughout.

Take `CC(N)C(=O)OCN1C(=O)C2C3C=CC(C2C1=O)C1C2C(=O)N(COC(=O)C(C)N)C(=O)C2C31` (centres undefined): the GI50 was 24.8 µM (inactive) in assay [1]; 23.1 µM (inactive) in [2]; 24.2 µM (inactive) in assay [3]; 33.8 µM (inactive) in assay [4]; 57 µM (inactive) in assay [5]; 20.6 µM (inactive) in assay [6]. For the same molecule, the GI50 in assay [7] was 71.6 µM (inactive); in assay [8], 18.5 µM (inactive); in assay [9], 43.1 µM (inactive); in assay [11], > 100 µM (inactive); in assay [12], > 100 µM (inactive); in assay [13], 28.2 µM (inactive). Moreover, the GI50 in assay [14] is 20.3 µM (inactive); in assay [15], 22.8 µM (inactive); in assay [16], 47.8 µM (inactive); in [17], 18.1 µM (inactive); in [18], 18.5 µM (inactive).

Consider `O=C1CCC2(c3ccccc3)Nc3ccccc3N12` (centres undefined), for which the GI50 in [1], in [2], in assay [4], in assay [5], in assay [6] and in assay [7] was > 100 µM (inactive) throughout. The GI50 in assay [9], in assay [10], in [11], in assay [12], in [13] and in assay [14] was > 100 µM (inactive) each time. Further, the GI50 in [15], in assay [16], in assay [17] and in assay [18] was > 100 µM (inactive) throughout.

Turning to `CCCCCCCCCCCCCCCCCCOCC1(COP(=O)([O-])OCC[N+](C)(C)C)CCCO1` (centres undefined), the GI50 was 16.4 µM (inactive) in [1]; 2.89 µM (inactive) in assay [2]; 10.1 µM (inactive) in [3]; 2.49 µM (inactive) in [4]; 8.17 µM (inactive) in assay [5]; 10.9 µM (inactive) in [6]. The GI50 was 1.6 µM (inactive) in assay [7]; 1.75 µM (inactive) in assay [8]; 1.89 µM (inactive) in assay [9]; 13.3 µM (inactive) in [10]; 2.34 µM (inactive) in [11]; 3.26 µM (inactive) in assay [13]. For the same molecule, the GI50 in assay [14] was 1.39 µM (inactive); in assay [15], 8.75 µM (inactive); in assay [16], 12.4 µM (inactive); in assay [17] it was 14.4 µM (inactive); in assay [18], 6.43 µM (inactive).

In the case of `C=C1C2CCCC1C1(S(C)(=O)=O)CCCCC21O` (centres undefined), the GI50 in assay [1], in assay [3], in assay [4], in assay [5], in [6] and in [7] was > 100 µM (inactive) in each case. Also, the GI50 in assay [8], in assay [9], in assay [10], in assay [11], in assay [12] and in assay [13] was > 100 µM (inactive) in each case. In addition, the GI50 in assay [14], in assay [15], in assay [16] and in assay [17] was > 100 µM (inactive) in each case.

Turning to `CCc1nc(N)nc(N)c1-c1ccc(Cl)c(N=[N+]=[N-])c1`, the GI50 was 0.531 µM (active) in assay [1]; 1.19 µM (inactive) in assay [3]; 18.2 µM (inactive) in assay [5]; 17.4 µM (inactive) in assay [6]; 4.57 µM (inactive) in [19]; 8.22 µM (inactive) in assay [9]. Also, the GI50 in [11] is 2.84 µM (inactive); in assay [20], 27.4 µM (inactive); in [12] it was 5.21 µM (inactive); in [13], 12.1 µM (inactive); in assay [14], 8.63 µM (inactive); in assay [16] it was 21.8 µM (inactive). For the same molecule, the GI50 in assay [17] was 3.74 µM (inactive); in assay [18], 3.26 µM (inactive).

In the case of `N#Cc1ccccc1Nc1ccccc1S`, the GI50 in assay [1] was 26 µM (inactive); in [2], 6.68 µM (inactive); in assay [4], 26.9 µM (inactive); in assay [5], 37.6 µM (inactive); in [6], 56.4 µM (inactive); in [7], > 100 µM (inactive). Also, the GI50 in [8] was 34.5 µM (inactive); in assay [10], 20.5 µM (inactive); in [11], 23.9 µM (inactive); in assay [12] it was 57.7 µM (inactive); in assay [14] it was 38.2 µM (inactive); in [15] it was 19.1 µM (inactive). Further, the GI50 was 29.4 µM (inactive) in assay [16], 17.9 µM (inactive) in [17] and 17.5 µM (inactive) in [18].

Turning to `COC(=O)[C@@]12C=CC(=O)[C@H]3C[C@@H](C(C(C)C)C1)[C@]32OC` (some centres undefined), the GI50 in assay [1], in assay [2], in assay [3], in [4], in [5] and in assay [6] was > 100 µM (inactive) throughout. Besides, the GI50 in assay [7], in assay [8], in assay [9], in assay [10], in assay [11] and in [12] was > 100 µM (inactive) throughout. Besides, the GI50 in assay [13], in assay [14], in assay [15], in [16] and in assay [17] was > 100 µM (inactive) throughout.

For `COC(=O)C(=Cc1cc(OC)ccc1OC)C(=O)OC`, the GI50 in assay [1] was 18 µM (inactive); in [2] it was 20 µM (inactive); in assay [4], 25.5 µM (inactive); in assay [5], 34.1 µM (inactive); in assay [6] it was 22.1 µM (inactive); in assay [7], 36.3 µM (inactive). In addition, the GI50 was 32.3 µM (inactive) in [8]; 19.1 µM (inactive) in [9]; 26.9 µM (inactive) in assay [10]; 28.2 µM (inactive) in assay [11]; 33.7 µM (inactive) in assay [12]; 20.6 µM (inactive) in [14]. Further, the GI50 in [15] is 20.9 µM (inactive); in [16], 28.2 µM (inactive); in [17], 19.1 µM (inactive); in assay [18], 18.2 µM (inactive).
